System: sediment microcosms
Assay: Effect of TCC, TCS and BES on TCE dechlorination in sediment microcosms and cultures derived from them
Format: cell-based
Description: In this study, microcosm is defined as: anaerobic airtight serum bottles with sediment samples, anaerobic medium, electron donor, and a chlorinated compound used as an electron acceptor. Four microcosms were set up in the anaerobic glove chamber with H2 concentration of 3% (Coy laboratory products Inc. Grass Lake, Mich.). Ten gram of homogeneously mixed sediment from either core A or core D were transferred independently into a 160 ml sterile serum bottle, and 90 ml anaerobic media with vitamin solution and 2 mM lactate were added. One hundred μL of 20 mg/L TCC stock solution in methanol and 100 μL of 20 mg/L TCS stock solution were added by pipette (Eppendorf, Calif.) to two of the four microcosms. Microcosms were capped with thick black butyl rubber stoppers and aluminum crimps. 4.5 μL pure TCE was injected with airtight syringe (Hamilton Company, Reno, Nev.) into each serum bottle. On day 130, in order to inhibit methane production in the sediment microcosms, 25 mM BES was added in to sediment-A microcosm and sediment-D microcosm with TCC and TCS with airtight syringe (Hamilton Company, Reno, Nev.). Microcosms were stored in the dark and incubated at 30° C.
Production of Sediment-Free Cultures. To establish sediment-free cultures from core A and core D sediment microcosms, the microcosms were shaken vigorously, and the solids were allowed to settle down. Then, using 1-inch, 21-gauge sterile needles, […] liquid (10 ml) were transferred into 89 ml sterile medium with the following contents: anaerobic medium, ATCC vitamin mix, and vitamin B12, in 160-ml serum bottles. Then, 1 ml each of 500-mM lactate stock solution and 35-μL TCE stock solution (1 mol/L in methanol) were added to form a 100 ml culture in 160-ml serum bottle. Three sediment cultures were derived from each sediment microcosm, and 12 sediment-free cultures were produced (FIG. 1). For organizational purposes, we refer to the sediment-free cultures generated from sediment-A microcosms as SCA and the sediment free cultures generated from sediment-D microcosms as DehaloR̂2, in the figures herein, the DehaloR̂2 are referred to as “SCD”. Thus, the term “SCD” and DehaloR̂2 are used interchangeably herein as the composition “SCD” was renamed “DehaloR̂2” during the course of investigation. The sediment-free cultures were kept in the dark and incubated at 30° C. After all the chlorinated electron acceptors were consumed, the cultures were re-spiked with TCE and electron donors.
BES (2-bromoethanesulfonate) is an efficient inhibitor for the metabolism of methanogens in methanogenetic cultures because it is a structural analog and competitive inhibitor of coenzyme M, which is only found in methanogens (Dimarco et al., 1990; Sparling and Daniels, 1987). Different concentrations of BES have been used by researchers. […] In this study, in order to determine if the cause for incomplete reductive dechlorination was competition for electron donor between methanogens and TCE dechlorinating microorganisms in the microcosms, I added 25 mM BES, 70 μmol of TCE, and 5 mM lactate into two sediment microcosms, sediment-A and sediment-D with TCC and TCS. In two other sediment microcosms, I added 70 μmol of TCE and 5 mM lactate without BES.

## O=S(=O)(O)CCBr [BES, 2-bromoethanesulfonic acid]
25 mM BES
  effect on TCE reductive dechlorination: exerted some inhibition on TCE reductive dechlorination
25 mM BES, two sediment microcosms
  methane production: no methane was produced
Cultures from microcosms amended with TCC, TCS, BES
  effect on TCE dechlorination rates in sediment-free cultures: slow down TCE dechlorination rates

— patent publication US20120178147A1, “MICROBIAL CULTURES AND METHODS FOR ANAEROBIC BIOREMEDIATION” (priority 2009, published 2012)
